Read-outs that look alike come from different tables or passages of the source. *1 amine or outer side, *2 acyl side, *3 side chain or, on linkers, in order; H or OH if unused. Where a SMILES comes first, the peptide text is derived from it. Bridges are numbered along the chain shown (N, C = ends). [ ]: non-standard residue; d: D form. The star is where a group is joined. hTyr(3S-OH,4S-OH,3'-OSO3H) = N[C@H](C(=O)O)[C@H](O)[C@@H](O)c1ccc(O)c(OS(=O)(=O)O)c1; Orn(4R-OH,5R-OH) = O=C([C@H](C[C@@H](O)[C@@H](O)N[*:3])N[*:1])[*:2]; Pro(3S-OH,4S-Me) = C[C@H]1CN[C@H](C(=O)O)[C@H]1O; X1 = CCCCCOc1ccc(-c2cc(-c3ccc(C(=O)*)cc3)no2)cc1; Gln(3R-OH) = NC(=O)C[C@@H](O)[C@H](N)C(=O)O; Hyp = O=C(O)[C@@H]1C[C@@H](O)CN1
Assays:
rats = rats treated for 3 months or more, dose of 150 mg/day (eight times the highest recommended human dose); cited from earlier work
[1] = rabbit model of neonatal HCME; highest concentrations within meninges and choroid; ref 2 (Hope et al.); cited from earlier work
Excerpt: In extremely low-birth-weight infants (<1 kg at birth) with invasive candidiasis, the probability of the central nervous system involvement during infection varies from 45% to 63% of cases. Micafungin concentration values in CSF are difficult to obtain if an external shunt has not been placed previously. Moreover, interpreting these values in vivo is not easy, considering that the fungal involvement of the central nervous system in neonatal age is typically hematogenous Candida meningoencephalitis (HCME). Hope et al. studied the pharmacokinetics and pharmacodynamics of micafungin in a r ...

invasive candidiasis = experiment: Microbiological and clinical success of micafungin therapy in infants with invasive candidiasis; format: in vivo, human; conditions: 8-15 mg/kg/day iv
Procedure: For this pooled analysis, we included data from a total of fifty-three neonates enrolled, aged ≤180 days (from the gestational age corrected at 37 weeks), affected with proven or suspected systemic candidiasis, whereby 3 of them had meningitis, who were treated for at least 14 days with micafungin (Mycamine®) at a dosage ranging from 8 to 15 mg/kg/day intravenously.
(§1) The dosage was formulated as a 2 mg/mL solution in 0.9% saline solution and administered intravenously over 1 h once daily. Infants who died within the first 48 h and those with acute or chronic hepatic diseases and/or known hypersensitivity to echinocandins were excluded. Each study with specific inclusion/exclusion criteria and definitions has been described in detail elsewhere.

[2] = Micafungin plasma pharmacokinetics in neonates and young infants (HPLC); format: in vivo, human; conditions: for level at 1 h: read-out: Plasma values after 1 h; for level at 8 h: read-out: Plasma values after 8 h; for level at -1 h: read-out: Plasma values before infusion
Procedure: as §1
(§2) Micafungin plasma and CSF concentrations were measured 1 h before and 1, 2, and 8 h after the end of the infusion. Sampling overlapped with those required for the clinical monitoring of these critical children. Blood samples were collected via heel puncture, using 0.3 mL capillary microtubes with EDTA, between Days 3 and 10 of micafungin therapy. Five minutes prior to sampling, the heel was warmed with a hot compress (40 °C), and puncture was performed using a Gentleheel incision device (Cardinal Health, Dublin, OH, USA) at alternate sites per timepoint. Blood picked up was centrifuged at 3000× g, and the plasma residue was stored at 4 °C until analyzed within 6 h or frozen at −20 °C and analyzed within 7 days, as previously reported. Drug concentrations were measured via high-performance liquid chromatography (HPLC). An HPLC method with a diode array detector was validated to fine-tune the measurement on small amounts of plasma (0.3 mL whole blood).
Moreover, we assessed the optimal dosage to obtain systemic drug exposure equivalent to that considered to be effective in adult patients. Systemic drug exposure was assessed via the area under the curve for 24 h (AUC0–24), the plasma clearance (CL), and the half-life. Results were stratified according to chronological age.

[3] = Micafungin concentrations in cerebrospinal fluid of infants with Candida meningitis (HPLC); format: in vivo; conditions: human, iv; for Kp at 1 h / Kp at 8 h / Kp: CSF (ratio to plasma); for Kp at 1 h: read-out: CSF/plasma ratio after 1 h; for Kp at 8 h: read-out: CSF/plasma ratio after 8 h; for Kp: read-out: CSF/plasma ratio before infusion; for level at 1 h / level at 8 h / level at -1 h: cerebrospinal fluid, HPLC; for level at 1 h: read-out: CSF values after 1 h; for level at 8 h: read-out: CSF values after 8 h; for level at -1 h: read-out: CSF values before infusion
Procedure: as §2, with “blood). […]” for “blood).”

[4] = cited from earlier work
Excerpt: This mechanism of action explains their characteristics of high specificity, even against resistant species of Candida. Micafungin is primarily eliminated via biliary excretion (90%), while the route of elimination via the kidney appears to be of minor importance in humans. Micafungin is bound to plasma proteins up to 99.5%. The binding to plasma proteins seems to be a ...

[5] = human, iv, 7 mg/kg/day, Patient 1, dose 7 mg/kg/day iv, HPLC
[6] = human, iv, 8 mg/kg/day, Patient 3, dose 8 mg/kg/day iv, HPLC
[7] = human, iv, 10 mg/kg/day, Patient 1, dose 10 mg/kg/day iv, HPLC
[8] = human, iv, 10 mg/kg/day, Patient 2, dose 10 mg/kg/day iv, HPLC
[9] = human, iv, 15 mg/kg/day, Patient 2, dose 15 mg/kg/day iv, HPLC
[10] = 7 mg/kg/day, Patient 1, dose 7 mg/kg/day iv
[11] = 8 mg/kg/day, Patient 3, dose 8 mg/kg/day iv
[12] = 10 mg/kg/day, Patient 1, dose 10 mg/kg/day iv
[13] = 10 mg/kg/day, Patient 2, dose 10 mg/kg/day iv
[14] = 15 mg/kg/day, Patient 2, dose 15 mg/kg/day iv

SMILES: CCCCCOc1ccc(-c2cc(-c3ccc(C(=O)N[C@H]4C[C@@H](O)[C@@H](O)NC(=O)[C@@H]5[C@@H](O)[C@@H](C)CN5C(=O)[C@H]([C@H](O)CC(N)=O)NC(=O)[C@H]([C@H](O)[C@@H](O)c5ccc(O)c(OS(=O)(=O)O)c5)NC(=O)[C@@H]5C[C@@H](O)CN5C(=O)[C@H]([C@@H](C)O)NC4=O)cc3)no2)cc1 [micafungin] (X1-[Orn(4R-OH,5R-OH)]T[Hyp][hTyr(3S-OH,4S-OH,3'-OSO3H)][Gln(3R-OH)][Pro(3S-OH,4S-Me)]; lactam 1-C)
- Hepatotoxicity finding in rats (rats): development of hepatocellular tumors
- Detection of micafungin within the CSF [1]: not reliably detected
- Clinical recovery (invasive candidiasis; infants with systemic candidiasis): all infants clinically recovered
- Microbiological success of the therapy (invasive candidiasis; subjects with invasive candidiasis, mean treatment duration 16.7 days, 95% CI = 51.2–97.9): 83.3%
- half-life ([2]; age 0 to ≤28 days (n = 16), 8-15 mg/kg/day iv, mean ± SD, SD): 810 ± 456 min
- Clearance/weight ([2]; age >28 days ≤120 days (n = 23), 8-15 mg/kg/day iv, mean ± SD, SD): 0.036 ± 0.010 L/h/kg
- level at 1 h [2, 5]: 15600 ng/mL
- level at 8 h [2, 5]: 8900 ng/mL
- level at -1 h [2, 5]: 2900 ng/mL
- level at 1 h [2, 6]: 27000 ng/mL
- level at 8 h [2, 6]: 16800 ng/mL
- level at -1 h [2, 6]: 9120 ng/mL
- level at 1 h [2, 7]: 21700 ng/mL
- level at 8 h [2, 7]: 6580 ng/mL
- level at -1 h [2, 7]: 3200 ng/mL
- level at 1 h [2, 8]: 17400 ng/mL
- level at 8 h [2, 8]: 8900 ng/mL
- level at -1 h [2, 8]: 6700 ng/mL
- level at 1 h [2, 9]: 21900 ng/mL
- level at 8 h [2, 9]: 12200 ng/mL
- level at -1 h [2, 9]: 5800 ng/mL
- clearance ([2]; human, iv, age 0 to ≤28 days (n = 16), 8-15 mg/kg/day iv over 1 h once daily, HPLC, mean ± SD, SD, read-out: Clearance (converted)): 1.2 mL/min
- clearance ([2]; human, iv, age 0 to ≤28 days (n = 16), 8-15 mg/kg/day iv, mean ± SD, SD, read-out: Clearance/weight (converted)): 0.6 mL/min/kg
- clearance ([2]; human, iv, age >28 days ≤120 days (n = 23), 8-15 mg/kg/day iv over 1 h once daily, HPLC, mean ± SD, SD, read-out: Clearance (converted)): 1.45 mL/min
- half-life ([2]; human, iv, age >28 days ≤120 days (n = 23), 8-15 mg/kg/day iv, mean ± SD, SD, read-out: Half-life (converted)): 804 ± 258 min
- clearance ([2]; human, iv, age >120 days (n = 13), 8-15 mg/kg/day iv over 1 h once daily, HPLC, mean ± SD, SD, read-out: Clearance (converted)): 1.82 mL/min
- clearance ([2]; human, iv, age >120 days (n = 13), 8-15 mg/kg/day iv, mean ± SD, SD, read-out: Clearance/weight (converted)): 0.467 mL/min/kg
- half-life ([2]; human, iv, age >120 days (n = 13), 8-15 mg/kg/day iv, mean ± SD, SD, read-out: Half-life (converted)): 864 ± 252 min
- AUC(0-t) ([2]; human, iv, plasma AUC0–24, age 0 to ≤28 days (n = 16), 8-15 mg/kg/day iv, mean ± SD, SD): 259 ± 92.7 µg·h/mL
- AUC(0-t) ([2]; human, iv, plasma AUC0–24, age >28 days ≤120 days (n = 23), 8-15 mg/kg/day iv, mean ± SD, SD): 237 ± 63.9 µg·h/mL
- AUC(0-t) ([2]; human, iv, plasma AUC0–24, age >120 days (n = 13), 8-15 mg/kg/day iv, mean ± SD, SD): 346 ± 145 µg·h/mL
- Kp at 1 h [3, 10]: 0.01
- Kp at 8 h [3, 10]: 0.02
- Kp [3, 10]: 0.05
- Kp at 1 h [3, 11]: 0.06
- Kp at 8 h [3, 11]: 0.08
- Kp [3, 11]: 0.22
- Kp at 1 h [3, 12]: 0.06
- Kp at 8 h [3, 12]: 0.19
- Kp [3, 12]: 0.38
- Kp at 1 h [3, 13]: 0.03
- Kp at 8 h [3, 13]: 0.03
- Kp [3, 13]: 0.06
- Kp at 1 h [3, 14]: 0.05
- Kp at 8 h [3, 14]: 0.07
- Kp [3, 14]: 0.16
- level at 1 h [3, 10]: 150 ng/mL
- level at 8 h [3, 10]: 150 ng/mL
- level at -1 h [3, 10]: 150 ng/mL
- level at 1 h [3, 11]: 1700 ng/mL
- level at 8 h [3, 11]: 1300 ng/mL
- level at -1 h [3, 11]: 2000 ng/mL
- level at 1 h [3, 12]: 1230 ng/mL
- level at 8 h [3, 12]: 1230 ng/mL
- level at -1 h [3, 12]: 1230 ng/mL
- level at 1 h [3, 13]: 500 ng/mL
- level at 8 h [3, 13]: 300 ng/mL
- level at -1 h [3, 13]: 400 ng/mL
- level at 1 h [3, 14]: 1100 ng/mL
- level at 8 h [3, 14]: 800 ng/mL
- level at -1 h [3, 14]: 900 ng/mL
- Bound to plasma proteins [4]: up to 99.5%
- Elimination via biliary excretion ([4]; humans): 90%

— paper PMC10051811, “Plasma and Cerebrospinal Fluid Concentrations of Micafungin Administered at High Doses in Critically Ill Infants with Systemic Candidiasis: A Pooled Analysis of Two Studies” (Pharmaceuticals, 2023)
